The text below walks through data of patent US4835100A (priority 1986, dated 1989).

The test system of assay [1] is monoclonal antibody (2F5). Format: binding, mouse.
Assay [2] deals with monoclonal antibody (2F5). In kind it is binding, mouse. This is another data set of the same source.
Assay [3] concerns monoclonal antibody (1C6). In kind it is binding, mouse.
The subject of assay [4] is serum antibody of mouse 1. Format: binding.
Assay [5] relates to serum antibody of mouse 2. In kind it is binding.
The subject of the next assay is monoclonal antibody 4E1. The settings on record: cited from earlier work.
Assay [6] concerns monoclonal antibody of Groopman et al. The note with it: cited from earlier work.
The subject of assay [7] is Rabbit polyclonal anti-aflatoxin B1 antibody. The settings on record: cited from earlier work.

Where “and” joins values, the source holds several entries; their conditions need not be identical. Identical values can stand only once.

With `COc1cc2c(c3oc(=O)c4c(c13)CCC4=O)[C@@H]1C=CO[C@@H]1O2` [Aflatoxin B1, aflatoxin B1], in assay [1], the “% Cross-reactivity 1 (2F5)” value is 100.0% and the “concentration for 50% inhibition of antibody binding in the ELISA” value (shortened to “concentration for 50% inhibition”) came to 2.8 ng/mL. For the same compound, the “% Cross-reactivity 2 (2F5)” value in assay [2] is on record as 100.0%. Further, the “% Cross-reactivity 3 (1C6)” value in assay [3] was determined as 100.00%. Besides, the “Percent Inhibition of serum antibody binding to solid phase” value in assay [4] turned out to be 0. In assay [5], the “Percent Inhibition of serum antibody binding to solid phase” value is 44.6 and 44.3 and 28.7 and 33.6 and 23.5. Besides, the “% Cross-reactivity 4” value with monoclonal antibody 4E1 is given as 100.0%. The “% Cross-reactivity 5” value in assay [6] is 100.0%. Also, in assay [7], the “% Cross-reactivity Rabbit” value was 100.0%.
In the case of `COc1cc2c(c3oc(=O)c4c(c13)CCC4=O)[C@@H]1CCO[C@@H]1O2` [Aflatoxin B2, aflatoxin B2], in assay [1], the “% Cross-reactivity 1 (2F5)” value stood at 4.0% and the “concentration for 50% inhibition” value was 70.8 ng/mL. Further, the “% Cross-reactivity 2 (2F5)” value in assay [2] stood at 0.2%. For the same compound, the “% Cross-reactivity 3 (1C6)” value in assay [3] worked out at 6.7%. Moreover, the “% Cross-reactivity 4” value in the assay on monoclonal antibody 4E1 was 12.6%. Besides, the “% Cross-reactivity 5” value in assay [6] is 100.0%. Further, the “% Cross-reactivity Rabbit” value in assay [7] is recorded as 131.6%.
Consider `COc1cc2c(c3oc(=O)c4c(c13)CCOC4=O)[C@@H]1C=CO[C@@H]1O2` [Aflatoxin G1, aflatoxin G1], for which, in assay [1], the “% Cross-reactivity 1 (2F5)” value stood at 175.0% and the “concentration for 50% inhibition” value came out at 1.6 ng/mL. Moreover, in assay [2], the “% Cross-reactivity 2 (2F5)” value amounted to 26.6%. For the same compound, in assay [3], the “% Cross-reactivity 3 (1C6)” value came to 193.0%. Moreover, the “% Cross-reactivity 4” value with monoclonal antibody 4E1 is 14.3%. Also, in assay [6], the “% Cross-reactivity 5” value is given as 5.0%. For the same compound, the “% Cross-reactivity Rabbit” value in assay [7] was 31.2%.
`COc1cc2c(c3oc(=O)c4c(c13)CCOC4=O)[C@@H]1CCO[C@@H]1O2` [Aflatoxin G2, aflatoxin G2]: in assay [1], the “% Cross-reactivity 1 (2F5)” value came to 5.0% and the “concentration for 50% inhibition” value was determined as 56.2 ng/mL. In addition, in assay [2], the “% Cross-reactivity 2 (2F5)” value is reported as less than 0.01%. Also, in assay [3], the “% Cross-reactivity 3 (1C6)” value came to 2.3%. Also, in the assay with monoclonal antibody 4E1, the “% Cross-reactivity 4” value is 1.2%. Besides, the “% Cross-reactivity 5” value in assay [6] is on record as 3.6%. The “% Cross-reactivity Rabbit” value in assay [7] is reported as 1.3%.
As for `COc1cc2c(c3oc(=O)c4c(c13)CCC4=O)[C@]1(O)C=CO[C@@H]1O2` [Aflatoxin M1, aflatoxin M1], in assay [1], the “% Cross-reactivity 1 (2F5)” value worked out at 4.5% and the “concentration for 50% inhibition” value came to 63.1 ng/mL. The “% Cross-reactivity 2 (2F5)” value in assay [2] is 3.7%. Also, the “% Cross-reactivity 3 (1C6)” value in assay [3] was 3.9%. Further, the “% Cross-reactivity 4” value with monoclonal antibody 4E1 is 7.3%. Moreover, the “% Cross-reactivity 5” value in assay [6] is reported as 100.0%. The “% Cross-reactivity Rabbit” value in assay [7] is 0%.
